The text below walks through data of BindingDB's records for patent US12398120 (Bayer Aktiengesellschaft, 2025).

The target of assay [1] is T1, A disintegrin and metalloproteinase with thrombospondin motifs 4 (Homo sapiens, UniProt O75173).
T1 sequence (O75173 whole entry): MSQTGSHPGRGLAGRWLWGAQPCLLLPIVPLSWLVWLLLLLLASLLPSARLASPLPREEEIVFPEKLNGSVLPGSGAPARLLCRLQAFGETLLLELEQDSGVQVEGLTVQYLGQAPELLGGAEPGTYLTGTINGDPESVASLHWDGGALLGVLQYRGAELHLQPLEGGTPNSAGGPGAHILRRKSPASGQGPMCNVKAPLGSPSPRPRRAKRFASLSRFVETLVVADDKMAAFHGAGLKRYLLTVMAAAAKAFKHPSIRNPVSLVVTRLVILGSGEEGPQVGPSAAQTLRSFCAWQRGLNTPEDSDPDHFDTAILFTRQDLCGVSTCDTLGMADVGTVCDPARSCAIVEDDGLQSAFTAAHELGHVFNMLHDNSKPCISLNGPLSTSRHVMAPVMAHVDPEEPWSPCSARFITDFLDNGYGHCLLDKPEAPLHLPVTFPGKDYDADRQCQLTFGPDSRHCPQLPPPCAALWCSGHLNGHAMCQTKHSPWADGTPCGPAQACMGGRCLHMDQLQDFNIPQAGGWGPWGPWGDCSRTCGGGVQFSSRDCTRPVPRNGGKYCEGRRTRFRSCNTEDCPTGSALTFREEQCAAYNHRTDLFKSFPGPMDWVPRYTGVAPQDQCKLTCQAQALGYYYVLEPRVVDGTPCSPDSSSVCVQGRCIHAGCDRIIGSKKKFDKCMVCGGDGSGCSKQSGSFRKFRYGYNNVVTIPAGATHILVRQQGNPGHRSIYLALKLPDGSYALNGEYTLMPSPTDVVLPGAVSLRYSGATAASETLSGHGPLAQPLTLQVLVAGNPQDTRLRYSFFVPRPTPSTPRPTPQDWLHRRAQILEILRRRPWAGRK

For assay [2], the target named is A disintegrin and metalloproteinase with thrombospondin motifs 7 (Homo sapiens, UniProt Q9UKP4). Kind of assay: Assay for ADAMTS-7 Enzymatic Activity and Testing of Inhibitory Compounds. Here is the method: An additional carboxyl glutamic acid was added after the QXL520 quencher to increase substrate solubility. […] IC50 values were calculated from percentage of inhibition of ADAMTS-7 activity as a function of test compound concentration.
Sequence of A disintegrin and metalloproteinase with thrombospondin motifs 7 (Q9UKP4 whole entry): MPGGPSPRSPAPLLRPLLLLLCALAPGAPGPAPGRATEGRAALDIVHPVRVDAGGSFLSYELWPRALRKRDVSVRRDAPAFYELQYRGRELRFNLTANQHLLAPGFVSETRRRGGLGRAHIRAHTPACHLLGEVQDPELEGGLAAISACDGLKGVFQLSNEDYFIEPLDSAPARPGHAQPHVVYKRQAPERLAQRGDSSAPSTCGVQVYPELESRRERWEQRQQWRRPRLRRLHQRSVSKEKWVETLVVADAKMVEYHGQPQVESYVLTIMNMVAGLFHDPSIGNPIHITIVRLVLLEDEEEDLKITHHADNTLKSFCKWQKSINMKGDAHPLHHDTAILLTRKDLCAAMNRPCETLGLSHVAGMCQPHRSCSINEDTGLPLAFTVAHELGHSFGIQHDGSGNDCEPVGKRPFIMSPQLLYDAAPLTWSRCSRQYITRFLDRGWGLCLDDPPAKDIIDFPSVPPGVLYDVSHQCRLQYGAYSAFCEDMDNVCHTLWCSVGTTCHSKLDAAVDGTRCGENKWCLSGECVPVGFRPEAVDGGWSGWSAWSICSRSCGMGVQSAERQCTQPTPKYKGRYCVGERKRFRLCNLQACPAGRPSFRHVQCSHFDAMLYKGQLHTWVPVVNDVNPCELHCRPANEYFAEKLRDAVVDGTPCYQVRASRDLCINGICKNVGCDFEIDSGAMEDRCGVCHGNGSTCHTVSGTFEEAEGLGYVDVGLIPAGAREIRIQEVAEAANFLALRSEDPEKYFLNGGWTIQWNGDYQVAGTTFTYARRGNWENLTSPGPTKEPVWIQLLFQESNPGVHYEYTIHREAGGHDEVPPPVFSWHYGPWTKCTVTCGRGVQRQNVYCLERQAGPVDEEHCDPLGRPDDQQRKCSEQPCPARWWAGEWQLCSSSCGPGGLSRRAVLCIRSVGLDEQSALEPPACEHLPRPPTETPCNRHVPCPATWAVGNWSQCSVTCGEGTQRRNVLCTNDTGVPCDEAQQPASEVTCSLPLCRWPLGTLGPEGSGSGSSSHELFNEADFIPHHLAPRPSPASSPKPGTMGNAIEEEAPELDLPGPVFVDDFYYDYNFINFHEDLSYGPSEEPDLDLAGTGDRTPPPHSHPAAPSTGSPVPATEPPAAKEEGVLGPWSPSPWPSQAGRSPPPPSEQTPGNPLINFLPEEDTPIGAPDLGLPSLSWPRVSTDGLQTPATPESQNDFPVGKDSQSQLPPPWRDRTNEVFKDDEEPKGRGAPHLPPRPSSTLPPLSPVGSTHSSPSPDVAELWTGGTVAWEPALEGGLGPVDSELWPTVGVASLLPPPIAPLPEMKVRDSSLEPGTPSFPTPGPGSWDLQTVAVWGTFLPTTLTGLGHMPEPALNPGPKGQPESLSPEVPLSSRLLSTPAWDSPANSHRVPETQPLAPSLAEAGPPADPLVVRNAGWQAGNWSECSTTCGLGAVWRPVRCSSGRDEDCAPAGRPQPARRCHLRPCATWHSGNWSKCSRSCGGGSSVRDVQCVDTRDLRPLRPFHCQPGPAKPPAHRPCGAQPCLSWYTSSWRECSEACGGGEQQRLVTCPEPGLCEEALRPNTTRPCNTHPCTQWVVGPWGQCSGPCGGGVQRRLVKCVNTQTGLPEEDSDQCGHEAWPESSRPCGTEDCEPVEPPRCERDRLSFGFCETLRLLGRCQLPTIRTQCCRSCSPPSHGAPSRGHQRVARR

What is called IC50 is the concentration at which inhibition is half-maximal. A high value points to weaker potency. As for `Cc1ccc(-c2cc(F)ccc2C(=O)NCC2(c3nccn3C)NC(=O)NC2=O)cc1` (single isomer, unassigned) [US12398120, Example 147], the figures for the IC50 in assay [1] and in assay [2] were 1.7 µM and 0.0042 µM, respectively.
The matching figures for `CC(C)C1(CNC(=O)c2ccc(F)c(F)c2-c2ccc(C(F)(F)F)cc2)NC(=O)NC1=O` (single isomer, unassigned) [US12398120, Example 214]: 37.5 µM and 0.00897 µM.
For `Cc1ccc(-c2cc(F)ccc2C(=O)NC[C@@]2(C3CC3)NC(=O)NC2=O)cc1` [US12398120, Example 100], in that order: 8.1 µM and 0.045 µM.
